Like-named read-outs stand apart in the source and are kept apart here.
How the values were obtained:
DP-IV = DP-IV (Homo sapiens, UniProt P27487); assay: DP-IV inhibition / affinity
Method: As an illustrative embodiment, the ability of a test agent to inhibit DPIV can be assessed using a colorimetric or fluorometric substrate, such as Ala-Pro-paranitroanilide.
An illustrative reaction mixture includes 50 μM sodium Hepes (pH7.8), 10 μM Ala-Pro-paranitroanilide, 6 milliunits of DPIV, and 2% (v/v) dimethylformamide in a total volume of 1.0 mL. The reaction is initiated by addition of enzyme, and formation of reaction product (paranitroanilide) in the presence and absence of a test compound can be detected photometrically, e.g., at 410 nm.

mice = assay: Oral glucose tolerance test in mice; assay type: in vivo; settings: for glucose levels in blood / glucose control: single injection alone, one hour prior to oral glucose challenge, FIG. 3; for response to a sub-therapeutic dose of GLP-1: single injection, with 8 μg GLP-1
Method: The first two experiments are “acute” experiments wherein the mice were injected with a single dose of Pro-boro-pro. In the first set of experiments mice were injected with 150 μg of Pro-boro-pro (PBP-1) and then subjected to an oral glucose tolerance test within an hour. […] In a second set of experiments mice were injected with Pro-boro-pro (PBP-2) one hour prior to an oral glucose challenge test. FIG. 3 presents the results of these experiments. Each set of experiments was also performed using saline as a control.
The third set of experiments were “chronic” experiments, wherein the mice were injected twice daily with Pro-boro-pro for four days, followed by an oral glucose challenge.

[1] = cited from earlier work
[2] = chronic (>5 days) treatment alone

Sequence of DP-IV (P27487 whole entry): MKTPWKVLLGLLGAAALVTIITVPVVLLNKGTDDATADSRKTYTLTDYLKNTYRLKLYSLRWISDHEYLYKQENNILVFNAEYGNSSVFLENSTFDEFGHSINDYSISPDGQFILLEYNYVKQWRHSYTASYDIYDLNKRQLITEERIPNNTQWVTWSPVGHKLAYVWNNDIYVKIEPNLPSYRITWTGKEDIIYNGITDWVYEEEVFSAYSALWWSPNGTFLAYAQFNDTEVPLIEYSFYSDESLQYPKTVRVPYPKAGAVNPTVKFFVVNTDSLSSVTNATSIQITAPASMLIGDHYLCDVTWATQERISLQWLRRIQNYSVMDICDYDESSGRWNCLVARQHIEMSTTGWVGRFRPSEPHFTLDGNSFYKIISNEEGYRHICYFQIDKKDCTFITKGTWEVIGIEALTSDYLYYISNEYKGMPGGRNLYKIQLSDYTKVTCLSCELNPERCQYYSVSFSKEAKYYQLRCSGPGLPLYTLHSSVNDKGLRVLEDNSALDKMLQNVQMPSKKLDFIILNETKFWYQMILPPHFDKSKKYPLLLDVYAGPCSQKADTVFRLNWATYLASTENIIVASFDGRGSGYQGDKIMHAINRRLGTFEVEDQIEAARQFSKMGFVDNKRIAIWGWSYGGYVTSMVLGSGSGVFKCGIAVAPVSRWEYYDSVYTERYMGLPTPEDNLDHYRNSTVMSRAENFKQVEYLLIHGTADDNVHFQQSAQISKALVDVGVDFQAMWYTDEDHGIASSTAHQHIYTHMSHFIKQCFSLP

L-Ala-L-boroPro-pinacol
extent of DP-IV inhibition (DP-IV; silica gel fractions compared at equal concentrations): inhibits DP-IV to a greater extent than later fractions

O=C(C1CCCN1)N1CCCC1B(O)O (stereo not shown) [Pro-boro-pro]
fasting blood sugars (mice; [2]): lowers
glycemic excursion to oral glucose challenge (mice; [2]): lowers
blood sugar levels (mice; chronic: injected twice daily for four days, then oral glucose challenge, FIG. 4): lowering of the blood sugar levels
blood sugar (mice; oral glucose challenge in mice, overall statement): clearly lowers blood sugar
glucose levels in blood (glucose tolerance curve) (mice; single injection 150 μg, oral glucose tolerance test within an hour, 8 μg GLP-1 five minutes prior to glucose, FIG. 2): improves glucose levels in blood
glucose levels in blood / glucose control (mice): alone sufficient to improve glucose control
glucose levels in blood / glucose control (mice; listed as PBP-2): improves glucose levels in blood
response to a sub-therapeutic dose of GLP-1 (mice; FIG. 2): potentiate the response to a subtherapeutic dose of GLP-1
response to a sub-therapeutic dose of GLP-1 (mice; FIG. 2, listed as PBP-1): potentiates the response to a sub-therapeutic dose of GLP-1

CC(NC(=O)OC(C)(C)C)C(=O)N1CCCC1B(O)O (stereo not drawn) [Boc-blocked Ala-boroPro, Boc-Ala-boroPro]
affinity for DP-IV (DP-IV): no affinity

glucagon-like peptide-1 [GLP-1]
metabolite share of the increase in plasma immunoreactivity (COOH-terminal RIA) ([1]; thirty minutes after subcutaneous GLP-1, diabetic patients (n=8)): 88.5+1.9%
metabolite share of the increase in plasma immunoreactivity (COOH-terminal RIA) ([1]; thirty minutes after subcutaneous GLP-1, healthy subjects (n=8)): 78.4+3.2%

— patent US9044424B2, “Methods of regulating glucose metabolism, and reagents related thereto” (Trustees of Tufts College, priority 1998, dated 2015)
